Legend:
P450RAI-2 = biological target: T1, P450RAI-2 (Homo sapiens, UniProt Q9NR63); experiment: P450RAI-2 cell-based inhibitor assay ([3H]-RA metabolism, intact cells); conditions: P450RAI-2 stably transfected HeLa cells, 3 hours at 37° C., all-trans-RA metabolism; read-out: P450RAI INHIBITION DATA RAI-2 Intact Cells IC50
T1 construct: expressed in transfected cells; host or cells: HeLa
T1 sequence (Q9NR63 1-512): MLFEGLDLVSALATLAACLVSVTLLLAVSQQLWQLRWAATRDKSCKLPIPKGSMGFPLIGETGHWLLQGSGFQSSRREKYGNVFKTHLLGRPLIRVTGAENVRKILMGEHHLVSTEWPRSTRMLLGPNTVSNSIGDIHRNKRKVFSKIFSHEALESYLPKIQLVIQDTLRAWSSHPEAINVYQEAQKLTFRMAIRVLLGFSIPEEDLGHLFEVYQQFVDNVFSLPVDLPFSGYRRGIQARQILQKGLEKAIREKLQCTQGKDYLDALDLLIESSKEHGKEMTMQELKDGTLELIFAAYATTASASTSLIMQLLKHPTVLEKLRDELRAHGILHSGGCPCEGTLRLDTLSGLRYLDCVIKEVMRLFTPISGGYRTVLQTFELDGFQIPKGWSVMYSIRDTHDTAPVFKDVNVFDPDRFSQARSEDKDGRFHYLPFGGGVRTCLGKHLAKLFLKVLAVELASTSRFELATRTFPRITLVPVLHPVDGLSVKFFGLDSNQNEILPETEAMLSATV
Experimental: FIG. 1 is a schematic representation of the P450RAI cell based assay utilized to evaluate the ability of the compounds of the invention to inhibit the Cytochrome P450RAI enzyme.
P450RAI-1 and P450RAI-2 Cell-Based Inhibitor Assay:
P450RAI-1 stably transfected HeLa cells, or P450RAI-2 stably transfected HeLa cells, as applicable, are maintained in […] tissue culture dishes in Modified Eagle's Medium (MEM) containing 10% Fetal Bovine Serum (FBS) and 100 μg/ml hygromycin. Exponentially growing cells are harvested by incubating in trypsin. Cells are then washed with 1X Phosphate Buffered Saline (PBS) and plated in a 48-well plate at 5×10^5 cells in 0.2 ml MEM medium containing 10% FBS and 0.05 μCi [^3H]-RA in the presence or absence of increasing concentrations of the test compounds. The compounds are diluted in 100% DMSO and then added in triplicate wells at either 10, 1 or 0.1 μM final concentration. As a positive control for RA metabolism inhibition, cells are also incubated with ketoconazole at 100, 10 and 1 μM. Cells are incubated for 3 hours at 37° C. The retinoids are then extracted using the procedure of Bligh et al. (1959) Canadian Journal of Biochemistry 37, 911-917, modified by using methylenechloride instead of chloroform. The publication Bligh et al. (1959) Canadian Journal of Biochemistry 37, 911-917 is specifically incorporated herein by reference. The water soluble radioactivity is quantified using a β-scintillation counter. IC50 values represent the concentration of inhibitor required to inhibit all-trans-RA metabolism by 50 percent and are derived manually from log-transformed data.

RARα = biological target: T2, RARα (Homo sapiens, UniProt P10276); experiment: ligand binding assay, RARα; conditions: last item of cell, read-out: RAR α Kd
T2 sequence (P10276 1-462): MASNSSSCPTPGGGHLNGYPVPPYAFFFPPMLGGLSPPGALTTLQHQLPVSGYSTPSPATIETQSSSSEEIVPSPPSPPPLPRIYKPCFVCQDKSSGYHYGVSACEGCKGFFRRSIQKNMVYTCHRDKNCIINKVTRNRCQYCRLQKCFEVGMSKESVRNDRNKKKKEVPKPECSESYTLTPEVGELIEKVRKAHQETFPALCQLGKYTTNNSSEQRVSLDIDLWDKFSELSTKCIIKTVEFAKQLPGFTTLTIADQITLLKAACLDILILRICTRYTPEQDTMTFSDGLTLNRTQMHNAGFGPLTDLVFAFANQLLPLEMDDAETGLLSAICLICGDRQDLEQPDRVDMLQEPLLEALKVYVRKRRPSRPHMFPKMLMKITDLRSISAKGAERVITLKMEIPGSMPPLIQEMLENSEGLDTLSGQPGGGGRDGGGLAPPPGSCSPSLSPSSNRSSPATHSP
Source text: (§1) Assays described below measure the ability of a compound to bind to, and/or activate various retinoid receptor subtypes. When in these assays a compound binds to a given receptor subtype and activates the transcription of a reporter gene through that subtype, then the compound is considered an agonist of that receptor subtype. […] In the below described assays the ability of the compounds to bind to RARα, RARβ, RARγ, RXRα, RXRβ and RXRγ receptors, and the ability or inability of the compounds to activate transcription of a reporter gene through these receptor subtypes can be tested.
(§2) A holoreceptor transactivation assay and a ligand binding assay which measure the antagonist/agonist like activity of the compounds of the invention, or their ability to bind to the several retinoid receptor subtypes, respectively, are described in published PCT Application No. WO WO93/11755 (particularly on pages 30-33 and 37-41) published on Jun. 24, 1993, the specification of which is also incorporated herein by reference. A detailed experimental procedure for holoreceptor transactivations has been described by Heyman et al. Cell 68, 397-406, (1992); Allegretto et al. J. Biol. Chem. 268, 26625-26633, and Mangelsdorf et al. The Retinoids: Biology, Chemistry and Medicine, pp 319-349, Raven Press Ltd., New York, which are expressly incorporated herein by reference. The results obtained in this assay are expressed in EC50 numbers, as they are also in the chimeric receptor transactivation assay. The results of ligand binding assay are expressed in Kd numbers. (See Cheng et al. Biochemical Pharmacology Vol. 22 pp 3099-3108, expressly incorporated herein by reference.)
(§3) The results of the ligand binding assay for several preferred compounds of the invention are included in Table 1.

RARγ = biological target: T3, RARγ (Homo sapiens, UniProt P13631); experiment: ligand binding assay, RARγ; conditions: last item of cell, read-out: RAR γ Kd
T3 sequence (P13631 1-454): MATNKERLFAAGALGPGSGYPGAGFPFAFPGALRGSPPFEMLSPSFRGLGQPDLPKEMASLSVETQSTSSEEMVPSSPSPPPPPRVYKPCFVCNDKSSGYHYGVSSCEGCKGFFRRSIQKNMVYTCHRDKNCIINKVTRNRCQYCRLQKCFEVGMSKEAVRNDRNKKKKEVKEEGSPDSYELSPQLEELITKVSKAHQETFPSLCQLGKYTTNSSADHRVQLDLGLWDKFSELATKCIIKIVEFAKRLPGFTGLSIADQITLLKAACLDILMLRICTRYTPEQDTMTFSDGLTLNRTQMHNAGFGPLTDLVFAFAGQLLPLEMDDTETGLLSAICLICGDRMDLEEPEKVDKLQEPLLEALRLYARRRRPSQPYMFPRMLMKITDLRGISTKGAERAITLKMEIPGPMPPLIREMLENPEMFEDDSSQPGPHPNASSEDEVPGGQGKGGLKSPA
Source text: as §1, §2, §3

SMILES	IC50 (P450RAI-2) [µM]	Kd (RARα) [µM]	Kd (RARγ) [µM]
CC(=O)OCOC(=O)Cc1ccc(OC(=O)c2cc(C#N)c3c(c2)C(C)(C)CC(C)(C)O3)cc1F [Compound 33, 8-Cyano-2,2,4,4-tetramethyl-chroman-6-carboxylic acid 4-acetoxymethoxycarbonylmethyl-3-fluoro-phenyl ester]	0.7	> 10	> 10
C#Cc1cc(C(=O)Oc2ccc(CC(=O)O)c(F)c2)cc2c1OC(C)(C)CC2(C)C [Compound 4, 8-Ethynyl-2,2,4,4-tetramethyl-chroman-6-carboxylic acid-4-carboxymethyl-3-fluoro-phenyl ester]	0.06	3.47	> 10
C#Cc1cc(C(=O)Oc2ccc(CC(=O)OCC)cc2)cc2c1OC(C)(C)CC2(C)C [Compound 2, 8-Ethynyl-2,2,4,4-tetramethyl-chroman-6-carboxylic acid 4-ethoxycarbonylmethyl-phenyl ester]	6	> 10	> 10
CC1(C)CC(C)(C)c2cc(C(=O)Oc3ccc(CC(=O)O)c(F)c3)cc(C#N)c2O1 [Compound 32, 8-Cyano-2,2,4,4-tetramethyl-chroman-6-carboxylic acid-4-carboxymethyl-3-fluoro-phenyl ester]	0.9	> 10	> 10
C#Cc1cc(C(=O)Oc2ccc(CC(=O)OCOC(C)=O)cc2)cc2c1OC(C)(C)CC2(C)C [Compound 3, 8-Ethynyl-2,2,4,4-tetramethyl-chroman-6-carboxylic acid 4-acetoxymethoxycarbonylmethyl-phenyl ester]	0.08	> 10	> 10
C#CCc1cc(C#Cc2ccc(CC(=O)O)cc2)cc2c1OC(C)(C)CC2(C)C [Compound 49]	0.12	7.24	8.24
C#Cc1cc(C#Cc2ccc(CC(=O)O)c(F)c2)cc2c1OC(C)(C)CC2(C)C [Compound 41, [4-(8-Ethynyl-2,2,4,4-tetramethyl-chroman-6-ylethynyl)-2-fluoro-phenyl]-acetic acid]	0.004	> 10	> 10
C#Cc1cc(C#Cc2ccc(CC(=O)O)cc2)cc2c1OC(C)(C)CC2(C)C [Compound 40, [4-(8-Ethynyl-2,2,4,4-tetramethyl-chroman-6-ylethynyl)-phenyl]-acetic acid]	0.007	> 10	> 10
C#Cc1cc(C(=O)Oc2ccc(CC(=O)O)cc2)cc2c1OC(C)(C)CC2(C)C [Compound 1, 8-Ethynyl-2,2,4,4-tetramethyl-chroman-6-carboxylic acid 4-carboxymethyl-phenyl ester]	0.014	> 10	> 10
C#Cc1cc(C(=O)Oc2ccc(CC(=O)OCOC(C)=O)c(F)c2)cc2c1OC(C)(C)CC2(C)C [Compound 5, 8-Ethynyl-2,2,4,4-tetramethyl-chroman-6-carboxylic acid 4-acetoxymethoxycarbonylmethyl-3-fluoro-phenyl ester]	0.03	4.68	> 10
